Data: publication PMC8351594, “Design of Novel Amphipathic α-Helical Antimicrobial Peptides with No Toxicity as Therapeutics against the Antibiotic-Resistant Gram-Negative Bacterial Pathogen, Acinetobacter Baumannii” (Journal of medicinal chemistry and drug design, 2019)
Converted amounts (≈) assume the structure as drawn. Square brackets hold non-standard residues; d marks the D form. Peptide text beside a SMILES is read from it. Dab = NCC[C@H](N)C(=O)O; Dap = NC[C@H](N)C(=O)O

Experiments:
Conditions in all cases: Mueller-Hinton medium, 37°C, 24 h, inoculum 5 × 10^5 CFU/mL; MIC based on three sets of determinations
[1] = test system: Acinetobacter baumannii MB9949
Protocol: (§1) The A. baumannii strains used in this study consisted of seven strains resistant to Polymyxin B and Colistin (antibiotics of last resort) obtained from MERCK (M89941, M89949, M89951, M89952, M89953, M89955 and M89963). The MICGM in this case is the geometric mean MIC from the seven Acinetobacter baumannii strains used in this study.
(§2) The minimal inhibitory concentration (MIC) is defined as the lowest peptide concentration that inhibited bacterial growth. MICs were measured by a standard microtiter dilution method in Mueller Hinton (MH) medium. Briefly, cells were grown overnight at 37°C in MH broth and were diluted in the same medium. […] The plates were incubated at 37°C for 24h, and the MICs were determined. The MICGM is the geometric mean of the number of MIC values.

[2] = test system: Acinetobacter baumannii MB9951
Protocol: as §1, §2

[3] = test system: Acinetobacter baumannii MB9953
Protocol: as §1, §2

[4] = test system: Acinetobacter baumannii MB9955
Protocol: as §1, §2

[5] = test system: Acinetobacter baumannii MB9963
Protocol: as §1, §2

[6] = test system: Acinetobacter baumannii MB9941
Protocol: as §1, §2

[7] = test system: Acinetobacter baumannii MB9952
Protocol: as §1, §2

| Compound | MIC MB9949 [1] | MIC MB9951 [2] | MIC MB9953 [3] | MIC MB9955 [4] | MIC MB9963 [5] | MIC MB9941 [6] | MIC MB9952 [7] |
| --- | --- | --- | --- | --- | --- | --- | --- |
| CC(=O)N[C@H](CCCCN)C(=O)N[C@H](CC(C)C)C(=O)N[C@H](CCCCN)C(=O)N[C@H](CO)C(=O)N[C@H](CC(C)C)C(=O)N[C@H](CC(C)C)C(=O)N[C@H](CCCCN)C(=O)N[C@@H](C(=O)N[C@H](CC(C)C)C(=O)N[C@H](CO)C(=O)N[C@H](CCCCN)C(=O)N[C@H](C)C(=O)N[C@H](CCCCN)C(=O)N[C@H](C)C(=O)N[C@H](C)C(=O)N[C@H](CCCCN)C(=O)N[C@H](CC(C)C)C(=O)N[C@H](CCCCN)C(=O)N[C@@H](C(=O)N[C@H](CC(C)C)C(=O)N[C@H](CC(C)C)C(=O)N[C@H](CCCCN)C(=O)N[C@H](C)C(=O)N[C@H](CC(C)C)C(=O)N[C@H](CO)C(=O)N[C@H](CO)C(N)=O)[C@H](C)O)[C@H](C)O [D101(Lys^1Ser^26-5 Lys-1)] (Ac-[dK][dL][dK][dS][dL][dL][dK][dT][dL][dS][dK][dA][dK][dA][dA][dK][dL][dK][dT][dL][dL][dK][dA][dL][dS][dS]-NH2) | 0.7 µM (≈ 1.98 µg/mL) | 0.7 µM (≈ 1.98 µg/mL) | 1.5 µM (≈ 4.24 µg/mL) | 0.7 µM (≈ 1.98 µg/mL) | 0.7 µM (≈ 1.98 µg/mL) | 0.7 µM (≈ 1.98 µg/mL) | 0.7 µM (≈ 1.98 µg/mL) |
| CC(=O)N[C@H](CCCCN)C(=O)N[C@H](CC(C)C)C(=O)N[C@H](CCCCN)C(=O)N[C@H](CO)C(=O)N[C@H](CC(C)C)C(=O)N[C@H](CC(C)C)C(=O)N[C@H](CCCCN)C(=O)N[C@@H](C(=O)N[C@H](CC(C)C)C(=O)N[C@H](CO)C(=O)N[C@H](C)C(=O)N[C@H](C)C(=O)N[C@H](CCCCN)C(=O)N[C@H](CCCCN)C(=O)N[C@H](CCCCN)C(=O)N[C@H](CCCCN)C(=O)N[C@H](CC(C)C)C(=O)N[C@H](C)C(=O)N[C@@H](C(=O)N[C@H](CC(C)C)C(=O)N[C@H](CC(C)C)C(=O)N[C@H](CCCCN)C(=O)N[C@H](C)C(=O)N[C@H](CC(C)C)C(=O)N[C@H](CO)C(=O)N[C@H](CCCCN)C(N)=O)[C@H](C)O)[C@H](C)O [D88(Lys^1-6 Lys-2)] (Ac-[dK][dL][dK][dS][dL][dL][dK][dT][dL][dS][dA][dA][dK][dK][dK][dK][dL][dA][dT][dL][dL][dK][dA][dL][dS][dK]-NH2) | 0.7 µM (≈ 2.01 µg/mL) | 0.3 µM (≈ 0.86 µg/mL) | 0.3 µM (≈ 0.86 µg/mL) | 0.3 µM (≈ 0.86 µg/mL) | 0.4 µM (≈ 1.15 µg/mL) | 0.7 µM (≈ 2.01 µg/mL) | 0.3 µM (≈ 0.86 µg/mL) |
| CC(=O)N[C@H](CCCCN)C(=O)N[C@H](CC(C)C)C(=O)N[C@H](CCCCN)C(=O)N[C@H](CO)C(=O)N[C@H](CC(C)C)C(=O)N[C@H](CC(C)C)C(=O)N[C@H](CCCCN)C(=O)N[C@@H](C(=O)N[C@H](CC(C)C)C(=O)N[C@H](CO)C(=O)N[C@H](CCCCN)C(=O)N[C@H](C)C(=O)N[C@H](CCCCN)C(=O)N[C@H](C)C(=O)N[C@H](C)C(=O)N[C@H](CCCCN)C(=O)N[C@H](CC(C)C)C(=O)N[C@H](CCCCN)C(=O)N[C@@H](C(=O)N[C@H](CC(C)C)C(=O)N[C@H](CC(C)C)C(=O)N[C@H](CCCCN)C(=O)N[C@H](C)C(=O)N[C@H](CC(C)C)C(=O)N[C@H](CO)C(=O)N[C@H](CCCCN)C(N)=O)[C@H](C)O)[C@H](C)O [D84(Lys^1-6 Lys-1)] (Ac-[dK][dL][dK][dS][dL][dL][dK][dT][dL][dS][dK][dA][dK][dA][dA][dK][dL][dK][dT][dL][dL][dK][dA][dL][dS][dK]-NH2) | 0.7 µM (≈ 2.01 µg/mL) | 0.3 µM (≈ 0.86 µg/mL) | 0.7 µM (≈ 2.01 µg/mL) | 0.3 µM (≈ 0.86 µg/mL) | 0.7 µM (≈ 2.01 µg/mL) | 0.3 µM (≈ 0.86 µg/mL) | 0.7 µM (≈ 2.01 µg/mL) |
| CC(=O)N[C@H](CCCCN)C(=O)N[C@H](CC(C)C)C(=O)N[C@@H](CCN)C(=O)N[C@H](CO)C(=O)N[C@H](CC(C)C)C(=O)N[C@H](CC(C)C)C(=O)N[C@@H](CCN)C(=O)N[C@@H](C(=O)N[C@H](CC(C)C)C(=O)N[C@H](CO)C(=O)N[C@H](C)C(=O)N[C@H](C)C(=O)N[C@H](CCCCN)C(=O)N[C@@H](CCN)C(=O)N[C@@H](CCN)C(=O)N[C@H](CCCCN)C(=O)N[C@H](CC(C)C)C(=O)N[C@H](C)C(=O)N[C@@H](C(=O)N[C@H](CC(C)C)C(=O)N[C@H](CC(C)C)C(=O)N[C@@H](CCN)C(=O)N[C@H](C)C(=O)N[C@H](CC(C)C)C(=O)N[C@H](CO)C(=O)N[C@@H](CCN)C(N)=O)[C@H](C)O)[C@H](C)O [D89(Lys^1-6 Dab-2)] (Ac-[dK][dL][Dab][dS][dL][dL][Dab][dT][dL][dS][dA][dA][dK][Dab][Dab][dK][dL][dA][dT][dL][dL][Dab][dA][dL][dS][Dab]-NH2) | 0.7 µM (≈ 1.89 µg/mL) | 0.7 µM (≈ 1.89 µg/mL) | 0.7 µM (≈ 1.89 µg/mL) | 0.7 µM (≈ 1.89 µg/mL) | 0.7 µM (≈ 1.89 µg/mL) | 0.7 µM (≈ 1.89 µg/mL) | 0.7 µM (≈ 1.89 µg/mL) |
| CC(=O)N[C@H](CCCCN)C(=O)N[C@H](CC(C)C)C(=O)N[C@@H](CN)C(=O)N[C@H](CO)C(=O)N[C@H](CC(C)C)C(=O)N[C@H](CC(C)C)C(=O)N[C@@H](CN)C(=O)N[C@@H](C(=O)N[C@H](CC(C)C)C(=O)N[C@H](CO)C(=O)N[C@H](C)C(=O)N[C@H](C)C(=O)N[C@H](CCCCN)C(=O)N[C@@H](CN)C(=O)N[C@@H](CN)C(=O)N[C@H](CCCCN)C(=O)N[C@H](CC(C)C)C(=O)N[C@H](C)C(=O)N[C@@H](C(=O)N[C@H](CC(C)C)C(=O)N[C@H](CC(C)C)C(=O)N[C@@H](CN)C(=O)N[C@H](C)C(=O)N[C@H](CC(C)C)C(=O)N[C@H](CO)C(=O)N[C@@H](CN)C(N)=O)[C@H](C)O)[C@H](C)O [D106(Lys^1-6 Dap-2)] (Ac-[dK][dL][Dap][dS][dL][dL][Dap][dT][dL][dS][dA][dA][dK][Dap][Dap][dK][dL][dA][dT][dL][dL][Dap][dA][dL][dS][Dap]-NH2) | 0.8 µM (≈ 2.09 µg/mL) | 1.5 µM (≈ 3.92 µg/mL) | 0.8 µM (≈ 2.09 µg/mL) | 0.4 µM (≈ 1.05 µg/mL) | 0.8 µM (≈ 2.09 µg/mL) | 0.8 µM (≈ 2.09 µg/mL) | 0.8 µM (≈ 2.09 µg/mL) |
| CC(=O)N[C@H](CCCCN)C(=O)N[C@H](CC(C)C)C(=O)N[C@@H](CCN)C(=O)N[C@H](CO)C(=O)N[C@H](CC(C)C)C(=O)N[C@H](CC(C)C)C(=O)N[C@@H](CCN)C(=O)N[C@@H](C(=O)N[C@H](CC(C)C)C(=O)N[C@H](CO)C(=O)N[C@@H](CCN)C(=O)N[C@H](C)C(=O)N[C@H](CCCCN)C(=O)N[C@H](C)C(=O)N[C@H](C)C(=O)N[C@H](CCCCN)C(=O)N[C@H](CC(C)C)C(=O)N[C@@H](CCN)C(=O)N[C@@H](C(=O)N[C@H](CC(C)C)C(=O)N[C@H](CC(C)C)C(=O)N[C@@H](CCN)C(=O)N[C@H](C)C(=O)N[C@H](CC(C)C)C(=O)N[C@H](CO)C(=O)N[C@@H](CCN)C(N)=O)[C@H](C)O)[C@H](C)O [D86(Lys^1-6 Dab-1)] (Ac-[dK][dL][Dab][dS][dL][dL][Dab][dT][dL][dS][Dab][dA][dK][dA][dA][dK][dL][Dab][dT][dL][dL][Dab][dA][dL][dS][Dab]-NH2) | 0.8 µM (≈ 2.16 µg/mL) | 0.8 µM (≈ 2.16 µg/mL) | 0.8 µM (≈ 2.16 µg/mL) | 0.8 µM (≈ 2.16 µg/mL) | 0.8 µM (≈ 2.16 µg/mL) | 1.5 µM (≈ 4.05 µg/mL) | 0.8 µM (≈ 2.16 µg/mL) |
| CC(=O)N[C@H](CCCCN)C(=O)N[C@H](CC(C)C)C(=O)N[C@@H](CCN)C(=O)N[C@H](CO)C(=O)N[C@H](CC(C)C)C(=O)N[C@H](CC(C)C)C(=O)N[C@@H](CCN)C(=O)N[C@@H](C(=O)N[C@H](CC(C)C)C(=O)N[C@H](CO)C(=O)N[C@H](C)C(=O)N[C@H](C)C(=O)N[C@H](CCCCN)C(=O)N[C@@H](CCN)C(=O)N[C@@H](CCN)C(=O)N[C@H](CCCCN)C(=O)N[C@H](CC(C)C)C(=O)N[C@H](C)C(=O)N[C@@H](C(=O)N[C@H](CC(C)C)C(=O)N[C@H](CC(C)C)C(=O)N[C@@H](CCN)C(=O)N[C@H](C)C(=O)N[C@H](CC(C)C)C(=O)N[C@H](CO)C(=O)N[C@H](CO)C(N)=O)[C@H](C)O)[C@H](C)O [D104(Lys^1Ser^26-5 Dab-2)] (Ac-[dK][dL][Dab][dS][dL][dL][Dab][dT][dL][dS][dA][dA][dK][Dab][Dab][dK][dL][dA][dT][dL][dL][Dab][dA][dL][dS][dS]-NH2) | 0.7 µM (≈ 1.88 µg/mL) | 0.7 µM (≈ 1.88 µg/mL) | 1.5 µM (≈ 4.03 µg/mL) | 0.7 µM (≈ 1.88 µg/mL) | 0.7 µM (≈ 1.88 µg/mL) | 0.7 µM (≈ 1.88 µg/mL) | 0.7 µM (≈ 1.88 µg/mL) |
